Laboratory results taken from ChEMBL document CHEMBL1201862, “PubChem BioAssay data set” (2004).
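The compound was tested at five concentrations on cells cultured in 96-well plates, with a 48-hour exposure period. GI50: concentration for 50% inhibition of growth.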 The source made the active and inactive calls. Rule as the data show it: active = GI50 up to about 1.1 µM and inactive = higher.

Tests used:
Assay in all cases: NCI-60 cell line screen, 48 h
[1] = system: A498
[2] = system: ACHN
[3] = system: BT-549
[4] = system: HL-60
[5] = system: HOP-92
[6] = system: K562
[7] = system: MDA-MB-231
[8] = system: MDA-MB-435
[9] = system: NCI-H226
[10] = system: NCI-H23
[11] = system: OVCAR-8
[12] = system: SF-268
[13] = system: SF-539
[14] = system: SNB-19
[15] = system: SNB-75
[16] = system: SR
[17] = system: T47D
[18] = system: TK-10
[19] = system: UACC-257
[20] = system: RXF 393

Measured: GI50

CCOC(=O)/C=C(/C(=O)OCC)n1cnc2c(=O)[nH]c(NC(C)=O)nc21
inactive: [1] > 100 µM | [2] > 100 µM | [3] > 100 µM | [4] > 100 µM | [5] > 100 µM | [6] > 100 µM | [7] > 100 µM | [8] > 100 µM | [9] > 100 µM | [10] > 100 µM | [11] > 100 µM | [12] > 100 µM | [13] > 100 µM | [14] > 100 µM | [15] > 100 µM | [16] > 100 µM | [17] > 100 µM | [18] > 100 µM | [19] > 100 µM

C=CCOC(=O)C1=C(C)N=C2N[C@H](CCCCCCCCC)C[C@@H]3CCC1N23 (stereo partly specified)
inactive: [2] 21.5 µM | [3] 19.9 µM | [4] 26.4 µM | [5] 19.3 µM | [6] 30.3 µM | [7] 21.5 µM | [8] 20.3 µM | [9] 17.9 µM | [10] 20 µM | [11] 30.5 µM | [20] 19.5 µM | [12] 19.3 µM | [13] 19 µM | [14] 19.2 µM | [15] 30.5 µM | [16] 28.4 µM | [17] 23.2 µM | [18] 19.2 µM | [19] 18.3 µM

CC12CC1C(c1cccc([N+](=O)[O-])c1)(c1cccc([N+](=O)[O-])c1)N=N2 (stereo unspecified)
inactive: [1] 4.28 µM | [2] 15.8 µM | [3] 18.5 µM | [4] 13 µM | [5] 14.1 µM | [6] 29.9 µM | [7] 16.5 µM | [8] 36.5 µM | [9] 25.3 µM | [10] 19.1 µM | [11] 25.1 µM | [12] 27.7 µM | [13] 25.5 µM | [14] 32.5 µM | [15] 24.6 µM | [16] 19.6 µM | [17] 25.8 µM | [18] 27.8 µM | [19] 28.1 µM

C=C1CCCC(C)(C)[C@H]1C/C=C1\CCOC1=O
inactive: [1] 17.2 µM | [2] 15.7 µM | [3] 14 µM | [4] 11.5 µM | [5] 12.1 µM | [6] 11.9 µM | [7] 17.7 µM | [8] 10.3 µM | [9] 9.89 µM | [10] 14.2 µM | [11] 17.7 µM | [12] 9.04 µM | [13] 17.2 µM | [14] 16.8 µM | [16] 12.4 µM | [17] 54.2 µM | [18] 19.5 µM | [19] 12.1 µM

COc1ccc2c3c1OC1C(=O)C=CC4(CC2)N(C)CCC314 (stereo unspecified)
inactive: [1] 13.9 µM | [2] 18.9 µM | [3] 23.6 µM | [5] 22.7 µM | [6] 12.2 µM | [7] 41.2 µM | [8] 12.2 µM | [10] 14 µM | [11] 22.5 µM | [20] 25.9 µM | [12] 19.3 µM | [14] 19.5 µM | [15] 28.1 µM | [16] 7.21 µM | [17] 19.4 µM | [18] 27.3 µM | [19] 28.6 µM

NC(Cc1ccccc1)C(=O)OCN1C(=O)C2C3C=CC(C2C1=O)C1C(=O)N(COC(=O)C(N)Cc2ccccc2)C(=O)C31 (stereo unspecified)
inactive: [2] > 100 µM | [3] > 100 µM | [4] 17.4 µM | [6] 28.5 µM | [7] 78 µM | [8] > 100 µM | [9] > 100 µM | [10] 66.2 µM | [11] > 100 µM | [20] > 100 µM | [12] > 100 µM | [13] > 100 µM | [14] > 100 µM | [16] 24.4 µM | [17] > 100 µM | [18] > 100 µM | [19] 75.2 µM

COc1ccc(OC2OC(CO)C(O)C(O)C2O)cc1 (stereo unspecified)
inactive: [1] > 100 µM | [2] > 100 µM | [3] > 100 µM | [4] > 100 µM | [6] > 100 µM | [7] > 100 µM | [8] > 100 µM | [9] > 100 µM | [10] > 100 µM | [11] > 100 µM | [12] > 100 µM | [13] > 100 µM | [14] > 100 µM | [15] > 100 µM | [16] > 100 µM | [17] > 100 µM | [18] > 100 µM | [19] > 100 µM

CC(=O)Nc1sc([N+](=O)[O-])cc1S(=O)(=O)c1ccc(Cl)cc1
inactive: [1] 3.17 µM | [2] 2.36 µM | [3] 3.64 µM | [4] 1.92 µM | [5] 2 µM | [6] 5.47 µM | [7] 4.23 µM | [8] 3.3 µM | [9] 3.96 µM | [10] 2.39 µM | [11] 3.78 µM | [20] 2.64 µM | [12] 4.35 µM | [13] 3.18 µM | [14] 3.31 µM | [15] 2.21 µM | [17] 2.04 µM | [18] 5.28 µM | [19] 2.64 µM
